Assays:
ducksalad = test: Test B flooded paddy test; assay type: in vivo, Heteranthera limosa; details: Heteranthera limosa, 360 h, 125 g ai/ha, applied to paddy water at 2-leaf stage, visual rating after 13 to 15 d, scale 0 (no effect) to 100 (complete control), read-out: Plant response rating, Ducksalad, Flood
Method in brief: (§1)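 Pots were flooded to 3 cm above the soil at treatment, and compounds were applied directly into the paddy water. That depth was held throughout. After 13 to 15 d in a greenhouse, plants were rated visually against untreated controls.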

velvetleaf = test: Test A postemergence; assay type: in vivo, Abutilon theophrasti; details: Abutilon theophrasti, post-emergence, 240 h, 0 to 100 scale (0 no effect, 100 complete control), approx. 10 d, read-out: Plant response rating, Velvetleaf; for pest or weed control at 125 g/ha: 125 g ai/ha; for pest or weed control at 500 g/ha: 500 g ai/ha
Method in brief: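 Pre- and postemergence spray tests in a loam soil–sand mixture: seeded soil received a directed spray, while established seedlings 2–10 cm high at the one- to two-leaf stage were treated over the top. Compounds were carried in non-phytotoxic solvent with surfactant.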

barnyardgrass = test: Test B flooded paddy test; assay type: in vivo, Echinochloa crus-galli; details: Echinochloa crus-galli, 360 h, 125 g ai/ha, applied to paddy water at 2-leaf stage, visual rating after 13 to 15 d, scale 0 (no effect) to 100 (complete control), read-out: Plant response rating, Barnyardgrass, Flood
Method in brief: as §1

sedge, umbrella = test: Test B flooded paddy test; assay type: in vivo, Cyperus difformis; details: Cyperus difformis, 360 h, 125 g ai/ha, applied to paddy water at 2-leaf stage, visual rating after 13 to 15 d, scale 0 (no effect) to 100 (complete control), read-out: Plant response rating, Sedge, Umbrella, Flood
Method in brief: as §1

CCn1nc(-c2ccc(F)cc2)nc1C(=O)c1ccnc(C(F)(F)F)c1 [Compound 19, [1-ethyl-3-(4-fluorophenyl)-1H-1,2,4-triazol-5-yl][2-(trifluoromethyl)-4-pyridinyl]methanone]
0%: pest or weed control at 125 g/ha (ducksalad) | pest or weed control at 125 g/ha (velvetleaf) | pest or weed control at 500 g/ha (velvetleaf) | pest or weed control at 125 g/ha (barnyardgrass) | pest or weed control at 125 g/ha (sedge, umbrella)

CS(=O)(=O)c1nc(-c2ccc(F)cc2)nn1Cc1ccnc(C(F)(F)F)c1 [Compound 29, 4-[[3-(4-fluorophenyl)-5-(methylsulfonyl)-1H-1,2,4-triazole-1-yl]methyl]-2-(trifluoromethyl)pyridine]
0%: pest or weed control at 125 g/ha (ducksalad) | pest or weed control at 125 g/ha (velvetleaf) | pest or weed control at 500 g/ha (velvetleaf) | pest or weed control at 125 g/ha (barnyardgrass) | pest or weed control at 125 g/ha (sedge, umbrella)

CCn1nc(-c2ccc(F)cc2)nc1C(O)c1ccnc(C(F)(F)F)c1 (stereo not drawn) [Compound 15, α-[1-Ethyl-3-(4-fluorophenyl)-1H-1,2,4-triazol-5-yl]-2-(trifluoromethyl)-4-pyridinemethanol]
0%: pest or weed control at 125 g/ha (ducksalad) | pest or weed control at 125 g/ha (velvetleaf) | pest or weed control at 500 g/ha (velvetleaf) | pest or weed control at 125 g/ha (barnyardgrass) | pest or weed control at 125 g/ha (sedge, umbrella)

— patent publication US10681909B2, “Herbicidal triazoles” (FMC Corporation, priority 2014, dated 2020)
